In patent US20200131196A1 (Mount Tam Therapeutics, Inc., priority 2017, published 2020):
Like-named read-outs stand apart in the source and are kept apart here.

Test: Pharmacokinetics in male Sprague Dawley rats (intravenous and oral)
Assay type: in vivo, rat
Conditions: for bioavailability: male, Sprague Dawley, po, 10 mg/kg; for AUC: read-out: AUC 0-infinity_observed
Method: Table 6 provides the pharmacokinetic parameters of Example (I) in male Sprague Dawley rats after a single bolus intravenous dose of 2 mg/kg. Table 7 provides the pharmacokinetic parameters of Example I in male Sprague Dawley rats after a single bolus oral dose of 10 mg/kg. In order to measure bioavailability in vivo, a compound may be administered to a test animal (e.g. mouse or rat) both intraperitoneally (i.p.) or intravenously (i.v.) and orally (p.o.) and blood samples are taken at regular intervals to examine how the plasma concentration of the drug varies over time. The time course of plasma concentration over time can be used to calculate the absolute bioavailability of the compound as a percentage using standard models. An example of a typical protocol is described below. […] The time-course of plasma or whole blood concentrations can then be used to derive key parameters such as the area under the plasma or blood concentration-time curve (AUC-which is directly proportional to the total amount of unchanged drug that reaches the systemic circulation), the maximum (peak) plasma or blood drug concentration, the time at which maximum plasma or blood drug concentration occurs (peak time), additional factors which are used in the accurate determination of bioavailability include: the compound's terminal half-life, total body clearance, steady-state volume of distribution and F %. These parameters are then analyzed by non-compartmental or compartmental methods to give a calculated percentage bioavailability, for an example of this type of method see Gallant-[…] et al, 2000 and […] et al, 1998, and references therein.

[1] = male Sprague Dawley rats, single bolus intravenous dose of 2 mg/kg
[2] = male Sprague Dawley rats, single bolus oral dose of 10 mg/kg
[3] = rat, blood, male Sprague Dawley rats, single bolus intravenous dose of 2 mg/kg
[4] = rat, blood, male Sprague Dawley rats, single bolus oral dose of 10 mg/kg

In the case of `CO[C@H]1C[C@@H]2CC[C@@H](C)[C@@](O)(O2)C(=O)C(=O)N2CCCC[C@H]2C(=O)O[C@H]([C@H](C)C[C@H]2C[C@H]3C[C@@H]2C[C@@H]3O)CC(=O)[C@H](C)/C=C(\C)[C@@H](O)[C@@H](OC)C(=O)[C@H](C)C[C@H](C)/C=C/C=C/C=C/1C` [Formula II, C37-[(1R,2S,4R,5S)-5-hyhroxybicyclo[2.2.1]heptane] rapamycin], the “AUMC 0-inf_observed” value [1] is reported as 2358 ng/ml*h^2, the Cl_obs [1] is reported as 0.0026 (mg/kg)/(ng/ml)/h and the Lambda_z [1] is reported as 0.270 h⁻¹. For the same molecule, the Vss_obs [1] was 0.00797 (mg/kg)/(ng/ml), the Vz_obs [1] was 0.00963 (mg/kg)/(ng/ml) and the “AUMC 0-inf_obs” value [2] was 13410 ng/ml*h^2. For the same molecule, the Cl/F_obs [2] was 0.0055 (mg/kg)/(ng/ml)/h, the Lambda_z [2] was 0.127 h⁻¹ and the Tlag [2] was 0 h. For the same molecule, the Vz/F_obs [2] was 0.0433 (mg/kg)/(ng/ml), the bioavailability (rat, blood, male Sprague Dawley rats, single bolus oral dose of 10 mg/kg, read-out: % F) was 47% and the bioavailability (rat, blood, read-out: oral bioavailability) was ~47%. The AUC(0-t) [3] was 694 ng·h/mL, the C0 [3] was 1560 ng/mL and the half-life [3] was 2.57 h. For the same molecule, the AUC [3] was 769 ng·h/mL, the Cmax (rat, blood, male Sprague Dawley rats, single bolus intravenous dose of 2 mg/kg, read-out: Cmax (maximum blood concentration)) was 912 ng/mL and the MRT (rat, blood, male Sprague Dawley rats, single bolus intravenous dose of 2 mg/kg, read-out: MRT 0-infinity_observed) was 3.06 h. It also gave a Tmax (rat, blood, male Sprague Dawley rats, single bolus intravenous dose of 2 mg/kg, read-out: Tmax (time maximum blood conc.)) of 0.0333 h, an AUC(0-t) [4] of 1720 ng·h/mL and a half-life [4] of 5.46 h. It also gave an AUC [4] of 1820 ng·h/mL, a Cmax (rat, blood, male Sprague Dawley rats, single bolus oral dose of 10 mg/kg, read-out: Cmax) of 206 ng/mL and an MRT inf (rat, blood, male Sprague Dawley rats, single bolus oral dose of 10 mg/kg, read-out: MRT 0-inf_obs) of 7.37 h. It also gave a Tmax (rat, blood, male Sprague Dawley rats, single bolus oral dose of 10 mg/kg, read-out: Tmax) of 2 h.
